Each compound was assayed against human HSV DNA polymerase UL30 (Human herpesvirus 1 (strain 17) (HHV-1) (Human herpes simplex virus 1), UniProt P04293) (assay: biochemical). Settings: 625 pM HSV polymerase, 20 minutes at room temperature; read-out: HSV-polymerase Biochemical IC50.
With Cn1nc(C(=O)NCc2ccc(C#N)cc2)c2c1C(=O)N(CC1(S(=O)(=O)N3CCC(C)(O)C3)CC1)CC2 (single isomer, unassigned) [Example 130, (R)- or (S)-N-(4-Cyanobenzyl)-6-((1-((3-hydroxy-3-methylpyrrolidin-1-yl)sulfonyl)cyclopropyl)methyl)-1-methyl-7-oxo-4,5,6,7-tetrahydro-1H-pyrazolo[3,4-c]pyridine-3-carboxamide] the IC50 was 122 nM.
Compound Cn1nc(C(=O)NCc2ccc(C#N)cc2)c2c1C(=O)N(CC1(S(=O)(=O)C3CC3)CC1)CC2 [Example 3, N-(4-cyanobenzyl)-6-((1-(cyclopropylsulfonyl)cyclopropyl)methyl)-1-methyl-7-oxo-4,5,6,7-tetrahydro-1H-pyrazolo[3,4-c]pyridine-3-carboxamide] has an IC50 of 55 nM.
Cn1nc(C(=O)NCc2ccc(Cl)cc2)c2c1C(=O)N(CC1(S(=O)(=O)C3CC3)CC1)CC2 [Example 4, N-(4-Chlorobenzyl)-6-((1-(cyclopropylsulfonyl)cyclopropyl)methyl)-1-methyl-7-oxo-4,5,6,7-tetrahydro-1H-pyrazolo[3,4-c]pyridine-3-carboxamide] was tested, and the IC50 was 48 nM.
In the case of Cn1nc(C(=O)NCc2ccc(F)cc2)c2c1C(=O)N(CC1(S(=O)(=O)C3CC3)CC1)CC2 [Example 5, 6-((1-(Cyclopropylsulfonyl)cyclopropyl)methyl)-N-(4-fluorobenzyl)-1-methyl-7-oxo-4,5,6,7-tetrahydro-1H-pyrazolo[3,4-c]pyridine-3-carboxamide], the IC50 is reported as 416 nM.
CN(Cc1ccc(C#N)cc1)C(=O)c1nn(C)c2c1CCN(CC1(S(=O)(=O)C3CC3)CC1)C2=O [Example 6, N-(4-Cyanobenzyl)-6-((1-(cyclopropylsulfonyl)cyclopropyl)methyl)-N,1-dimethyl-7-oxo-4,5,6,7-tetrahydro-1H-pyrazolo[3,4-c]pyridine-3-carboxamide] was tested, and the IC50 was 959 nM.
In the case of Cc1ccc(CNC(=O)c2nn(C)c3c2CCN(CC2(S(=O)(=O)C4CC4)CC2)C3=O)cc1 [Example 8, 6-((1-(Cyclopropylsulfonyl)cyclopropyl)methyl)-1-methyl-N-(4-methylbenzyl)-7-oxo-4,5,6,7-tetrahydro-1H-pyrazolo[3,4-c]pyridine-3-carboxamide], the IC50 is reported as 1630 nM.
Cn1nc(C(=O)NCc2ccc(C#N)c(F)c2)c2c1C(=O)N(CC1(S(=O)(=O)C3CC3)CC1)CC2 [Example 9, N-(4-Cyano-3-fluorobenzyl)-6-((1-(cyclopropylsulfonyl)cyclopropyl)methyl)-1-methyl-7-oxo-4,5,6,7-tetrahydro-1H-pyrazolo[3,4-c]pyridine-3-carboxamide] showed an IC50 of 45 nM.
Work on Cn1nc(C(=O)NCc2ccc(Cl)s2)c2c1C(=O)N(CC1(S(=O)(=O)C3CC3)CC1)CC2 [Example 10, N-((5-Chlorothiophen-2-yl)methyl)-6-((1-(cyclopropylsulfonyl)cyclopropyl)methyl)-1-methyl-7-oxo-4,5,6,7-tetrahydro-1H-pyrazolo[3,4-c]pyridine-3-carboxamide] yielded an IC50 of 641 nM.
For Cc1cc(CNC(=O)c2nn(C)c3c2CCN(CC2(S(=O)(=O)C4CC4)CC2)C3=O)ccc1C#N [Example 11, N-(4-Cyano-3-methylbenzyl)-6-((1-(cyclopropylsulfonyl)cyclopropyl)methyl)-1-methyl-7-oxo-4,5,6,7-tetrahydro-1H-pyrazolo[3,4-c]pyridine-3-carboxamide], the IC50 was 2230 nM.
Compound Cc1cc(C#N)ccc1CNC(=O)c1nn(C)c2c1CCN(CC1(S(=O)(=O)C3CC3)CC1)C2=O [Example 12, N-(4-Cyano-2-methylbenzyl)-6-((1-(cyclopropylsulfonyl)cyclopropyl)methyl)-1-methyl-7-oxo-4,5,6,7-tetrahydro-1H-pyrazolo[3,4-c]pyridine-3-carboxamide] has an IC50 of 346 nM.
Work on Cn1nc(C(=O)NCc2ccc(C#N)cc2F)c2c1C(=O)N(CC1(S(=O)(=O)C3CC3)CC1)CC2 [Example 13, N-(4-Cyano-2-fluorobenzyl)-6-((1-(cyclopropylsulfonyl)cyclopropyl)methyl)-1-methyl-7-oxo-4,5,6,7-tetrahydro-1H-pyrazolo[3,4-c]pyridine-3-carboxamide] yielded an IC50 of 311 nM.
For Cn1nc(C(=O)NCc2ccc(C#N)cn2)c2c1C(=O)N(CC1(S(=O)(=O)C3CC3)CC1)CC2 [Example 14, N-((5-Cyanopyridin-2-yl)methyl)-6-((1-(cyclopropylsulfonyl)cyclopropyl)methyl)-1-methyl-7-oxo-4,5,6,7-tetrahydro-1H-pyrazolo[3,4-c]pyridine-3-carboxamide], the IC50 was 1610 nM.
For COc1cc(CNC(=O)c2nn(C)c3c2CCN(CC2(S(=O)(=O)C4CC4)CC2)C3=O)ccc1C#N [Example 15, N-(4-Cyano-3-methoxybenzyl)-6-((1-(cyclopropylsulfonyl)cyclopropyl)methyl)-1-methyl-7-oxo-4,5,6,7-tetrahydro-1H-pyrazolo[3,4-c]pyridine-3-carboxamide], the IC50 was 385 nM.
Work on C[C@H](NC(=O)c1nn(C)c2c1CCN(CC1(S(=O)(=O)C3CC3)CC1)C2=O)c1ccc(C#N)cc1 [Example 16, (S)-N-(1-(4-Cyanophenyl)ethyl)-6-((1-(cyclopropylsulfonyl)cyclopropyl)methyl)-1-methyl-7-oxo-4,5,6,7-tetrahydro-1H-pyrazolo[3,4-c]pyridine-3-carboxamide] yielded an IC50 of 239 nM.
C[C@@H](NC(=O)c1nn(C)c2c1CCN(CC1(S(=O)(=O)C3CC3)CC1)C2=O)c1ccc(C#N)cc1 [Example 17, (R)-N-(1-(4-Cyanophenyl)ethyl)-6-((1-(cyclopropylsulfonyl)cyclopropyl)methyl)-1-methyl-7-oxo-4,5,6,7-tetrahydro-1H-pyrazolo[3,4-c]pyridine-3-carboxamide] was tested, and the IC50 was > 25000 nM.
Work on Cn1nc(C(=O)N[C@@H](CO)c2ccc(Cl)cc2)c2c1C(=O)N(CC1(S(=O)(=O)C3CC3)CC1)CC2 [Example 18, (R)-N-(1-(4-Chlorophenyl)-2-hydroxyethyl)-6-((1-(cyclopropylsulfonyl)cyclopropyl)methyl)-1-methyl-7-oxo-4,5,6,7-tetrahydro-1H-pyrazolo[3,4-c]pyridine-3-carboxamide] yielded an IC50 of 1060 nM.
Cn1nc(C(=O)N[C@H](CO)c2ccc(Cl)cc2)c2c1C(=O)N(CC1(S(=O)(=O)C3CC3)CC1)CC2 [Example 19, (S)-N-(1-(4-Chlorophenyl)-2-hydroxyethyl)-6-((1-(cyclopropylsulfonyl)cyclopropyl)methyl)-1-methyl-7-oxo-4,5,6,7-tetrahydro-1H-pyrazolo[3,4-c]pyridine-3-carboxamide] showed an IC50 of 8180 nM.
For CCS(=O)(=O)C1(CN2CCc3c(C(=O)NCc4ccc(C#N)cc4)nn(C)c3C2=O)CC1 [Example 20, N-(4-Cyanobenzyl)-6-((1-(ethylsulfonyl)cyclopropyl)methyl)-1-methyl-7-oxo-4,5,6,7-tetrahydro-1H-pyrazolo[3,4-c]pyridine-3-carboxamide], the IC50 was 259 nM.
Cn1nc(C(=O)NCc2ccc(C#N)cc2)c2c1C(=O)N(CC1(S(C)(=O)=O)CC1)CC2 [Example 21, N-(4-Cyanobenzyl)-1-methyl-6-((1-(methylsulfonyl)cyclopropyl)methyl)-7-oxo-4,5,6,7-tetrahydro-1H-pyrazolo[3,4-c]pyridine-3-carboxamide] gave an IC50 of 517 nM.
Compound Cn1nc(C(=O)NCc2ccc(Cl)cc2)c2c1C(=O)N(CC1(S(C)(=O)=O)CC1)CC2 [Example 22, N-(4-Chlorobenzyl)-1-methyl-6-((1-(methylsulfonyl)cyclopropyl)methyl)-7-oxo-4,5,6,7-tetrahydro-1H-pyrazolo[3,4-c]pyridine-3-carboxamide] has an IC50 of 436 nM.
For Cn1nc(C(=O)NCc2ccc(C#N)c(F)c2)c2c1C(=O)N(CC1(S(C)(=O)=O)CC1)CC2 [Example 23, N-(4-Cyano-3-fluorobenzyl)-1-methyl-6-((1-(methylsulfonyl)cyclopropyl)methyl)-7-oxo-4,5,6,7-tetrahydro-1H-pyrazolo[3,4-c]pyridine-3-carboxamide], the IC50 was 345 nM.
Cn1nc(C(=O)OCc2ccc(C#N)cc2)c2c1C(=O)N(CC1(S(=O)(=O)C3CC3)CC1)CC2 [Example 24, 4-cyanobenzyl 6-((1-(cyclopropylsulfonyl)cyclopropyl)methyl)-1-methyl-7-oxo-4,5,6,7-tetrahydro-1H-pyrazolo[3,4-c]pyridine-3-carboxylate] showed an IC50 of 467 nM.
Work on Cn1nc(C(=O)COc2ccc(C#N)cc2)c2c1C(=O)N(CC1(S(=O)(=O)C3CC3)CC1)CC2 [Example 25, 4-(2-(6-((1-(cyclopropylsulfonyl)cyclopropyl)methyl)-1-methyl-7-oxo-4,5,6,7-tetrahydro-1H-pyrazolo[3,4-c]pyridin-3-yl)-2-oxoethoxy)benzonitrile] yielded an IC50 of 53 nM.
Compound Cn1nc(-c2nnc(Cc3ccc(C#N)cc3)o2)c2c1C(=O)N(CC1(S(=O)(=O)C3CC3)CC1)CC2 [Example 26, 4-((5-(6-((1-(Cyclopropylsulfonyl)cyclopropyl)methyl)-1-methyl-7-oxo-4,5,6,7-tetrahydro-1H-pyrazolo[3,4-c]pyridin-3-yl)-1,3,4-oxadiazol-2-yl)methyl)benzonitrile] has an IC50 of 3960 nM.
Cn1nc(-c2noc(Cc3ccc(C#N)cc3)n2)c2c1C(=O)N(CC1(S(=O)(=O)C3CC3)CC1)CC2 [Example 28, 4-((3-(6-((1-(Cyclopropylsulfonyl)cyclopropyl)methyl)-1-methyl-7-oxo-4,5,6,7-tetrahydro-1H-pyrazolo[3,4-c]pyridin-3-yl)-1,2,4-oxadiazol-5-yl)methyl)benzonitrile] gave an IC50 of 29 nM.
Cn1nc(-c2nnn(Cc3ccc(C#N)cc3)n2)c2c1C(=O)N(CC1(S(=O)(=O)C3CC3)CC1)CC2 [Example 29, 4-((5-(6-((1-(Cyclopropylsulfonyl)cyclopropyl)methyl)-1-methyl-7-oxo-4,5,6,7-tetrahydro-1H-pyrazolo[3,4-c]pyridin-3-yl)-2H-tetrazol-2-yl)methyl)benzonitrile] showed an IC50 of 86 nM.
Cn1nc(-c2nnnn2Cc2ccc(C#N)cc2)c2c1C(=O)N(CC1(S(=O)(=O)C3CC3)CC1)CC2 [Example 30, 4-((5-(6-((1-(cyclopropylsulfonyl)cyclopropyl)methyl)-1-methyl-7-oxo-4,5,6,7-tetrahydro-1H-pyrazolo[3,4-c]pyridin-3-yl)-1H-tetrazol-1-yl)methyl)benzonitrile] showed an IC50 of 6240 nM.

From patent publication US20250353820A1, “ANTIVIRAL PYRAZOLOPYRIDINONE COMPOUNDS” (Novartis AG, priority 2019, published 2025)
